Measurements taken from patent publication US20120149598A1, “FEEDER CELLS FOR TARGET CELL INDUCTION” (priority 2009, published 2012).

Key:
[1] = system: hTERT+TK-transduced human corneal stromal cells; experiment: Susceptibility to ganciclovir treatment, cell count with trypan-blue staining; format: cell-based; conditions: n=3
Method: (§1) The susceptibilities of the transduced human corneal stromal cells to ganciclovir treatment were investigated by the following process. The hTERT-transduced human corneal stromal cells of Comparative Example and the hTERT+TK-transduced human corneal stromal cells of Example 1 were separately seeded at 2×10^4 cells/cm^2 in a 24-well plate, and cultured under conditions of 37° C. and 5% CO2 (medium: DMEM, 10% FBS, 100 U/ml penicillin and 100 μg/ml streptomycin). On the 1st day after seeding, ganciclovir treatment was started (treatment concentration: 0, 10^−7, […], […], and 10^−4 M; time course: day 0, 2, 4, 6, 8, 10, and 12). The susceptibility of each type of the transduced human corneal stromal cells to ganciclovir treatment was determined using 3 wells for each concentration at each time point (n=3). At each time point, the number of the cells was counted with trypan-blue staining. For counting with trypan-blue staining, an erythrocytometer (hematometer; product name: Burker-Turk deep 1/10 mm; product number: Tokyo No. 0880 (ERMA, Inc.)) was used. Immediately after staining, each sample was placed in a counting chamber of the erythrocytometer. Immediately after that, the number of the cells was counted. The average number of the cells on the zero-day of ganciclovir treatment at each treatment concentration was used as a baseline (100%) for the results of the cell number at each time point.

[2] = system: hTERT-transduced human corneal stromal cells (not transduced with the HSV-TK gene); experiment: as above; format: cell-based; conditions: any treatment concentration (up to 10^-4 M), 12th day after ganciclovir treatment, n=3
Method: as §1

Question: Which results are given for `Nc1nc(O)c2ncn(COC(CO)CO)c2n1` [ganciclovir]?
Answer: number of the cells after ganciclovir treatment ([1]; 10^-4 M treatment group, 6th day after ganciclovir treatment): all the cells died; number of the cells after ganciclovir treatment ([1]; 10^-7, 10^-6 and 10^-5 M groups, from the 8th day after ganciclovir treatment): concentration-dependent decrease in the number of the cells; number of the cells after ganciclovir treatment [2]: did not decrease
